Test results as given in patent US9890147B2 (BAYER PHARMA AKTIENGESELLSCHAFT, priority 2012, dated 2018).

Molecular target: T1, BRD4 (BD1) (Homo sapiens, UniProt O60885)
T1 construct: with relatively long constructs also being possible, preferably amino acids 44-168; made in house; host or cells: E. coli
Assay: Binding assay BRD4/acetylated peptide H4 (TR-FRET protein-protein interaction assay)
Source text: Binding Assay BRD4/Acetylated Peptide H4 (“PRO”)
To assess the BRD4 binding of the substances described in the present application, their ability to inhibit the interaction between BRD4 (BD1) and acetylated histone H4 in a dose-dependent manner was quantified (Filippakopoulos et al., Cell, 2012, 149: 214-231).
For this purpose, use was made of a time-resolved fluorescence resonance energy transfer (TR-FRET) assay which measured binding between N-terminally His6-tagged BRD4 (BD1) (amino acids 67-152, with relatively long constructs also being possible, preferably amino acids 44-168) and a synthetic acetylated histone H4 (Ac—H4) peptide having the sequence GRGK(Ac)GGK(Ac)GLGK(Ac)GGAK(Ac)RHGSGSK-biotin. The recombinant BRD4 protein-produced according to Filippakopoulos et al., Cell, 2012, 149: 214-231—was expressed in E. coli and purified by (Ni-NTA) affinity and (Sephadex G-75) size exclusion chromatography. The Ac—H4 peptide is commercially available, for example from Biosyntan (Berlin, Germany). In a typical assay, 11 different concentrations of each substance (0.1 nM, 0.33 nM, 1.1 nM, 3.8 nM, 13 nM, 44 nM, 0.15 μM, 0.51 μM, 1.7 μM, 5.9 μM and 20 μM) were measured in duplicate on the same microtitre plate. To this end, 100-fold concentrated solutions in DMSO were prepared by serial dilution (1:3.4) of a 2 mM stock solution in a clear 384-well microtitre platte (Greiner Bio-One, Frickenhausen, Germany) 50 nl of these were transferred into a black test plate (Greiner Bio-One, Frickenhausen, Germany). The test was started by addition of 2 μl of a 2.5-fold concentrated BRD4 solution (final concentration usually 10 nM in the […] of the reaction volume) in aqueous assay buffer [50 mM HEPES pH 7.5. 50 mM sodium chloride (NaCl), 0.25 mM CHAPS and 0.05% serum albumin (BSA)] to the substances in the test plate. This was followed by a 10-minute incubation step at 22° C. to pre-equilibrate putative complexes between BRD4 and the substances.
The mixture was then incubated in the dark for one hour at 22° C. and then for at least 3 hours and at most overnight at 4° C. Formation of BRD4/Ac—H4 complexes was determined by measuring the resonance energy transfer from the streptavidin-Eu cryptate to the anti-6His-XL665 antibody in the reaction. To this end, the fluorescence emission was measured at 620 nm and 665 nm after excitation at 330-350 nm in a TR-FRET measuring device, for example a Rubystar or Pherastar (both from BMG Lab Technologies, Offenburg, Germany) or a Viewlux (Perkin-Elmer). The ratio of the emission at 665 nm and at […] was used as an indicator for the amount of BRD4/Ac—H4 complexes formed.
The data obtained (ratios) were normalized, with 0% inhibition corresponding to the mean of the measured values of a set of controls (usually 32 data points) comprising all reagents. Here, 50 nl of DMSO (100%) were used instead of test substances. An inhibition of 100% corresponded to the mean of the measured values of a set of controls (usually 32 data points) comprising all reagents except for BRD4. The IC50 was determined by regression analysis based on a 4-parameter equation (minimum, maximum, IC50, Hill; Y=Max+(Min−Max)/(1+(X/IC 50)^Hill)).

Row | SMILES | IC50 [nM]
1 | CNC(=O)N1N=C(c2ccc(Cl)cc2)c2ccc(N3CCOCC3)cc2CC1C (racemic) [Example 233, (±)-1-(4-chlorophenyl)-N,4-dimethyl-7-(morpholin-4-yl)-4,5-dihydro-3H-2,3-benzodiazepine-3-carboxamide] | 3450
2 | CNC(=O)N1N=C(c2ccc(Cl)cc2)c2ccc(N3CCCC3)cc2CC1C (racemic) [Example 234, (±)-1-(4-chlorophenyl)-N,4-dimethyl-7-(pyrrolidin-1-yl)-4,5-dihydro-3H-2,3-benzodiazepine-3-carboxamide] | 3830
3 | CNC(=O)N1N=C(c2ccc(Cl)cc2)c2ccc(N3CCS(=O)(=O)CC3)cc2CC1C (racemic) [Example 235, (±)-1-(4-chlorophenyl)-7-(1,1-dioxidothiomorpholin-4-yl)-N,4-dimethyl-4,5-dihydro-3H-2,3-benzodiazepine-3-carboxamide] | 5020
4 | CNC(=O)N1N=C(c2ccc(Cl)cc2)c2ccc(N3CCN(C)CC3)cc2CC1C (racemic) [Example 236, (±)-1-(4-chlorophenyl)-N,4-dimethyl-7-(4-methylpiperazin-1-yl)-4,5-dihydro-3H-2,3-benzodiazepine-3-carboxamide] | 2200
5 | CNC(=O)N1N=C(c2ccc(N3CCN(C)CC3)cc2)c2ccc(N3CCN(C)CC3)cc2CC1C (racemic) [Example 237, (±)-N,4-dimethyl-7-(4-methylpiperazin-1-yl)-1-[4-(4-methylpiperazin-1-yl)phenyl]-4,5-dihydro-3H-2,3-benzodiazepine-3-carboxamide] | 1070
6 | CNC(=O)N1N=C(c2ccc(N3CCN(C)C(=O)C3)cc2)c2ccc(N3CCN(C)C(=O)C3)cc2CC1C (racemic) [Example 238, (±)-N,4-dimethyl-7-(4-methyl-3-oxopiperazin-1-yl)-1-[4-(4-methyl-3-oxopiperazin-1-yl)phenyl]-4,5-dihydro-3H-2,3-benzodiazepine-3-carboxamide] | 130
7 | CNC(=O)N1N=C(c2ccc(Cl)cc2)c2ccc(-c3ccc(F)cc3)cc2CC1C (racemic) [Example 239, (±)-1-(4-chlorophenyl)-7-(4-fluorophenyl)-N,4-dimethyl-4,5-dihydro-3H-2,3-benzodiazepine-3-carboxamide] | 11400
8 | CNC(=O)N1N=C(c2ccc(Cl)cc2)c2ccc(-c3ccncc3)cc2CC1C (racemic) [Example 240, (±)-1-(4-chlorophenyl)-N,4-dimethyl-7-(pyridin-4-yl)-4,5-dihydro-3H-2,3-benzodiazepine-3-carboxamide] | 4500
9 | CNC(=O)N1N=C(c2ccc(Cl)cc2)c2ccc(-c3ccc(O)nc3)cc2CC1C (racemic) [Example 241, (±)-1-(4-chlorophenyl)-7-(6-hydroxypyridin-3-yl)-N,4-dimethyl-4,5-dihydro-3H-2,3-benzodiazepine-3-carboxamide] | 2560
10 | CNC(=O)N1N=C(c2ccc(Cl)cc2)c2ccc(-c3c(C)noc3C)cc2CC1C (racemic) [Example 242, (±)-1-(4-chlorophenyl)-7-(3,5-dimethyl-1,2-oxazol-4-yl)-N,4-dimethyl-4,5-dihydro-3H-2,3-benzodiazepine-3-carboxamide] | 2690
11 | CNC(=O)N1N=C(c2ccc(N3CCCS3(=O)=O)cc2)c2cc(OC)c(OC)cc2CC1C (racemic) [Example 244, (±)-1-[4-(1,1-Dioxido-1,2-thiazolidin-2-yl)phenyl]-7,8-dimethoxy-N,4-dimethyl-4,5-dihydro-3H-2,3-benzodiazepine-3-carboxamide] | 30
12 | CNC(=O)N1N=C(c2ccc(-c3c(C)nn(C)c3C)cc2)c2cc(OC(F)(F)F)ccc2CC1C (racemic) [Example 249, (±)-N,4-dimethyl-8-(trifluoromethoxy)-1-[4-(1,3,5-trimethyl-1H-pyrazol-4-yl)phenyl]-4,5-dihydro-3H-2,3-benzodiazepine-3-carboxamide] | 30
13 | CNC(=O)N1N=C(c2cc(N3CCN(C)CC3)c(Br)cc2Br)c2cc(OC)c(OC)cc2CC1C (racemic) [Example 252, (±)-1-[2,4-Dibromo-5-(4-methylpiperazin-1-yl)phenyl]-7,8-dimethoxy-N,4-dimethyl-4,5-dihydro-3H-2,3-benzodiazepine-3-carboxamide] | 5290
14 | CCC(=O)N1N=C(c2ccc(N3CCN(C)CC3)cc2)c2cc(OC)c(OC)cc2CC1C (racemic) [Example 255, (±)-7,8-dimethoxy-4-methyl-1-[4-(4-methylpiperazin-1-yl)phenyl]-3-(1-oxopropyl)-4,5-dihydro-3H-2,3-benzodiazepine] | 240
15 | COc1cc2c(cc1OC)C(c1ccc(N3CCN(C)CC3)cc1)=NN(C(=O)C1CC1)C(C)C2 (racemic) [Example 256, (±)-3-(cyclopropylcarbonyl)-7,8-dimethoxy-4-methyl-1-[4-(4-methylpiperazin-1-yl)phenyl]-4,5-dihydro-3H-2,3-benzodiazepine] | 610
16 | COc1cc2c(cc1OC)C(c1ccc(N3CCN(C)CC3)cc1)=NN(C(=O)NC1CC1)C(C)C2 (racemic) [Example 257] | 2000
17 | CNC(=S)N1N=C(c2ccc(N3CCN(C)CC3)cc2)c2cc(OC)c(OC)cc2CC1C (racemic) [Example 258, (±)-7,8-Dimethoxy-N,4-dimethyl-1-[4-(4-methylpiperazin-1-yl)phenyl]-4,5-dihydro-3H-2,3-benzodiazepine-3-carbothioamide] | 190
18 | COC(=O)N1N=C(c2ccc(N3CCN(C)CC3)cc2)c2cc(OC)c(OC)cc2CC1C (racemic) [Example 259, Methyl(±)-7,8-dimethoxy-4-methyl-1-[4-(4-methylpiperazin-1-yl)phenyl]-4,5-dihydro-3H-2,3-benzodiazepine-3-carboxylate] | 520
19 | CCOC(=O)N1N=C(c2ccc(N3CCN(C)CC3)cc2)c2cc(OC)c(OC)cc2CC1C (racemic) [Example 260, Ethyl (±)-7,8-dimethoxy-4-methyl-1-[4-(4-methylpiperazin-1-yl)phenyl]-4,5-dihydro-3H-2,3-benzodiazepine-3-carboxylate] | 6490
20 | CCNC(=O)N1N=C(c2ccc(N3CCN(C)CC3)cc2)c2cc(OC)c(OC)cc2CC1C (racemic) [Example 261, (±)-N-Ethyl-7,8-dimethoxy-4-methyl-1-[4-(4-methylpiperazin-1-yl)phenyl]-4,5-dihydro-3H-2,3-benzodiazepine-3-carboxamide] | 1490
21 | COc1cc2c(cc1OC)C(c1ccc(N3CCN(C)CC3)cc1)=NN(C(C)=O)[C@@H](C)C2 (single isomer, unassigned) [Example 245.1] | 390
22 | CNC(=O)N1N=C(c2ccc(-c3cccnc3Cl)cc2)c2cc(OC)c(OC)cc2C[C@H]1C [Example 4.1, (R)-1-[4-(2-chloropyridin-3-yl)phenyl]-7,8-dimethoxy-N,4-dimethyl-4,5-dihydro-3H-2,3-benzodiazepine-3-carboxamide] | 780
23 | CNC(=O)N1N=C(c2ccc(-c3cccnc3Cl)cc2)c2cc(OC)c(OC)cc2C[C@@H]1C [Example 4.2, (S)-1-[4-(2-chloropyridin-3-yl)phenyl]-7,8-dimethoxy-N,4-dimethyl-4,5-dihydro-3H-2,3-benzodiazepine-3-carboxamide] | 60
24 | CNC(=O)N1N=C(c2ccc(-c3ccc(C(F)(F)F)nc3)cc2)c2cc(OC)c(OC)cc2C[C@H]1C [Example 50.2, (4R)-7,8-dimethoxy-N,4-dimethyl-1-{4-[6-(trifluoromethyl)pyridin-3-yl]phenyl}-4,5-dihydro-3H-2,3-benzodiazepine-3-carboxamide] | 18900
25 | CNC(=O)N1N=C(c2ccc(N3CCC(O)CC3)cc2)c2cc(OC)c(OC)cc2C[C@H]1C [Example 130.2, (4R)-1-[4-(4-Hydroxypiperidin-1-yl)phenyl]-7,8-dimethoxy-N,4-dimethyl-4,5-dihydro-3H-2,3-benzodiazepine-3-carboxamide] | 9870
